Data on 2 compounds can be found in patent US10786571B2, “Hydrophilic gel for topical delivery of 5-aminolevulinic acid” (Zimmer Biotech GmbH, priority 2015, dated 2020).

The conditions of data set [1]: cited from earlier work.
Data set [2] is described as follows: Stability of 5-ALA / product. Format: physicochemical. The following applies: different storage conditions.
The conditions of data set [3]: aqueous solution; cited from earlier work.

Regarding Porfimer Sodium [Photofrin], the “sensitivity to daylight after treatment” value in data set [1] was 30 to 60 days.

In the case of `NCC(=O)CCC(=O)O` [5-ALA, 5-aminolevulinic acid], the “sensitivity to daylight after treatment” value in data set [1] is 1 to 2 days. The “long-term stability in double chamber tube” value in data set [2] is “long-term stable at different storage conditions without degradation”. For the same compound, the “pH of best stability of aqueous solutions” value in data set [3] is on record as below 6.
